# Source: US8648099B2 (Hoffmann-La Roche Inc., priority 2011, dated 2014)
# Read-outs that look alike come from different tables or passages of the source.
# Columns and labels:
# ABCA1 protein = test: Detection of upregulation of ABCA1 protein in cells (ApoA-I binding, high content imaging); format: cell-based; conditions: THP-1 macrophage cells; for % increase of ABCA1 at 3 μM: compound at 3 μM, 24 hrs; for EC50: 24 hrs compound incubation, read-out: EC50 [μM] ABCA1 protein increasing efficacy
# Experimental: The ability of compounds of the invention to increase the level of ABCA1 protein is determined in replicate cultures of THP-1 macrophage cells in 96-well microplates. Cells are plated at an initial density of 100,000 cells/well in 100 μl medium and differentiated to adherent macrophages with the addition of PMA (100 nM) for 68 hrs in 10% fetal bovine serum, 3 μl/L of b-mercaptoethanol, RPMI-1640 medium. Then, cells are incubated with RPMI-1640 medium containing 1% FCS, 25 μg/ml acetylated LDL, for 24 hours at 37° C. Following incubation with acetylated LDL, cells are washed twice with 50 μl PBS and incubated with 100 μl of RPMI-1640 medium containing the compound of interest solubilized in DMSO for an additional 24 hrs. The final DMSO concentration in presence of cells is maintained at 0.5%. ApoA-I binding assay using High Content Image Analysis is initiated by replacing with fresh medium, RPMI without Phenol Red, 0.2% BSA containing AlexaFluor®647 labeled ApoA-I for 2 h/37° C./5% CO2. Then, cells are fixed with 4% Formaldehyde in PBS (15 min, RT). Following Nuclei are stained with Hoechst solution (3 μM PBS) and Cytoplasm with Cell Mask Blue (2 μg/ml PBS), 15 min, RT. Finally the stained cells are fixed with a second round of formaldehyde treatment. Fixed stained cells are washed and kept in PBS at 4° C. and can be read immediately until one month after preparation.
# The Alexa Fluor 647-labeled Apolipoprotein A-I (20 nM) was prepared as follows: Human recombinant Apolipoprotein A-I (ApoA-I) was exchanged to a buffer of 0.02 M NaHCO3 at pH 8.2 on an NAP desalting column (GE Healthcare) and brought to a concentration to 40 μM (1.13 mg/ml) by adjustment with the same buffer. The ApoA-I was fluorescently labeled by incubation with Alexa Fluor carboxylic acid succimidyl ester (Alexa Fluor 647, Invitrogen A-20006) at a 2:1 molar ratio (Alexa to ApoA-I) for 1 h under shaking at RT. The remaining unconjugated label was removed by buffer exchange to 0.02M NaHCO3 at pH 8.2.
# Imaging and data collection were performed on an OPERA confocal microplate imaging reader using a 20× water immersion objective and UV360 or 405 laser to identify the cell nuclei and a 635 laser to identify the fluorescent ApoA-I. Eight fields of view are captured per well. Image capture and analysis was performed with the Acapella software. Background fluorescence detected in control wells without ApoA-I was subtracted.
# Using XLfit3 program (ID Business Solutions Ltd. UK), the model 205 for Dose Response One Site is used to calculate the EC50 values. […] More particularly, the compounds of the present invention have EC50 values in a range of 0.1 μM to 3 μm.
# human CB1 receptor = molecular target: T1, human CB1 receptor (Homo sapiens, UniProt P21554); test: CB1 receptor affinity ([3H]-CP-55,940 displacement, HEK cell membranes); format: binding; conditions: read-out: CB1 receptor affinity [% inhibition @ 10 μM]
# T1 construct: expressed in transfected cells; host or cells: human embryonic kidney (HEK) cells, Semliki Forest Virus system, membrane preparations
# Experimental: (§1) The affinity of the compounds of the invention for cannabinoid receptors was determined using membrane preparations of human embryonic kidney (HEK) cells in which the human CB1 receptor is transiently transfected using a Semliki Forest Virus system in conjunction with [3H]-CP-55,940 as radioligand. After incubation of freshly prepared cell membrane preparation with the [^3H]-ligand, with or without addition of compounds of the invention, separation of bound and free ligand was performed by filtration over glass fiber filters. Radioactivity on the filter was measured by scintillation counting.
# (§2) The ability of the compounds to displace the radioligand [^3H]-CP-55,940 was measured at a concentration of 10 μM and values provided as [% inhibition @ 10 μM] both for the CB1 and CB2 receptor assay, The lower % inhibition is, the lower the likelihood of side effects based on CB1 or CB2 receptor inhibition is.
# human CB2 receptor = molecular target: T2, human CB2 receptor (Homo sapiens, UniProt P34972); test: CB2 receptor affinity ([3H]-CP-55,940 displacement, HEK cell membranes); format: binding; conditions: displacement of [3H]-CP-55,940 at 10 μM
# T2 construct: expressed in transfected cells; host or cells: human embryonic kidney (HEK) cells, Semliki Forest Virus system, membrane preparations
# Experimental: as §1, with “cannabinoid CB2” for “cannabinoid”, “CB2” for “CB1”, “[^3H]-CP-55,940” for “[3H]-CP-55,940”
# as §2
# [1] = displacement of [3H]-CP-55,940 at 10 μM
# T1 sequence (P21554 whole entry): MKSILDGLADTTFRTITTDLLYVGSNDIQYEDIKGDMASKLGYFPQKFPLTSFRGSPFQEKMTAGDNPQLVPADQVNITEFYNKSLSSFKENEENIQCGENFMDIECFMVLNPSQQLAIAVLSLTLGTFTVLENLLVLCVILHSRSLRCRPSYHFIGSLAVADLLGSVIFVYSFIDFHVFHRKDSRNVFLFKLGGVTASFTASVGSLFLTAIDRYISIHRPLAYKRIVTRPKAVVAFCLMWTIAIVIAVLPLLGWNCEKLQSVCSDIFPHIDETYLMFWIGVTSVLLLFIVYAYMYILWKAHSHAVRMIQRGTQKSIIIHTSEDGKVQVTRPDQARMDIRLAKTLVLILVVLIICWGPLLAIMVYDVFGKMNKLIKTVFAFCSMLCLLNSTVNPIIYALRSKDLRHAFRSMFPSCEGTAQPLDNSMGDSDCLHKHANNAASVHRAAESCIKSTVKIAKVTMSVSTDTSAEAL
# T2 sequence (P34972 whole entry): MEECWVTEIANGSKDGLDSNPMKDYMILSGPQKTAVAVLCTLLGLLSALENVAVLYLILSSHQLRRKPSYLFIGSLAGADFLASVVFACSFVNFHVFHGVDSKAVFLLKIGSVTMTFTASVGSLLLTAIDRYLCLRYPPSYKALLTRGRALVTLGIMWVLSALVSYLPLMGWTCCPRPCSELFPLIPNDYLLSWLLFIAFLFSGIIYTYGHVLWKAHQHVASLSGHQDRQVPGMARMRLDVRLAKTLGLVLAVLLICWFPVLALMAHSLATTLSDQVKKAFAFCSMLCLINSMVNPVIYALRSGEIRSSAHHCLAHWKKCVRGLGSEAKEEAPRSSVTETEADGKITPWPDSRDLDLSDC
SMILES,% increase of ABCA1 at 3 μM (ABCA1 protein),inhibition at 10 µM (human CB1 receptor; [1]),inhibition at 10 µM (human CB2 receptor),EC50 (ABCA1 protein),inhibition at 10 µM (human CB1 receptor)
"O=C(NNCC(F)(F)F)c1cnc(OCC(F)(F)F)c(-c2ccc(Cl)cc2)c1 [Example 1, 5-(4-chlorophenyl)-6-(2,2,2-trifluoroethoxy)-N′-(2,2,2-trifluoroethyl)-3-pyridinecarboxylic acid hydrazide]",>45%@ 3 μM,42%,10%,,
"O=C(NN1CCOCC1)c1cnc(OCC(F)(F)F)c(-c2ccc(Cl)cc2)c1 [Example 2, 5-(4-chlorophenyl)-N-morpholino-6-(2,2,2-trifluoroethoxy)-3-pyridinecarboxamide]",>45%@ 3 μM,43%,8%,,
"O=C(NN1CCS(=O)(=O)CC1)c1cnc(OCC(F)(F)F)c(-c2ccc(Cl)cc2)c1 [Example 3, 5-(4-chloro-phenyl)-N-(1,1-dioxido-4-thiomorpholinyl)-6-(2,2,2-trifluoro-ethoxy)-3-pyridinecarboxamide]",>45%@ 3 μM,39%,7%,,
"CC(C)(C)OC(=O)N1CCCN1C(=O)c1cnc(OCC(F)(F)F)c(-c2ccc(Cl)cc2)c1 [Example 4, t-butyl 2-[(5-(4-chlorophenyl)-6-(2,2,2-trifluoroethoxy)-3-pyridinyl)carbonyl]-pyrazolidine-1-carboxylate]",>45%@ 3 μM,40%,24%,,
"CN(NC(=O)c1cnc(OCC(F)(F)F)c(-c2ccc(Cl)cc2)c1)c1ccccc1 [Example 5, 5-(4-chloro-phenyl)-6-(2,2,2-trifluoro-ethoxy)-3-pyridinecarboxylic acid N′-methyl-N′-phenyl-hydrazide]",>45%@ 3 μM,45%,31%,,
"O=C(NN1CCC(O)CC1)c1cnc(OCC(F)(F)F)c(-c2ccc(Cl)cc2)c1 [Example 6, 5-(4-chlorophenyl)-N-(4-hydroxypiperidin-1-yl)-6-(2,2,2-trifluoroethoxy)-3-pyridinecarboxamide]",,,-9%,1.11 µM,11%
"O=C(NN1CC(CN2CCOCC2)OC1=O)c1cnc(OCC(F)(F)F)c(-c2ccc(Cl)cc2)c1 (stereo not drawn) [Example 7, 5-(4-chlorophenyl)-N-(5-(morpholinomethyl)-2-oxooxazolidin-3-yl)-6-(2,2,2-trifluoroethoxy)-3-pyridinecarboxamide]",>45%@ 3 μM,36%,-4%,,
"CN(NC(=O)c1cnc(OCC(F)(F)F)c(-c2ccc(Cl)cc2)c1)c1ccc(Cl)nn1 [Example 8, 5-(4-chlorophenyl)-N′-(6-chloropyridazin-3-yl)-N′-methyl-6-(2,2,2-trifluoroethoxy)-3-pyridinecarboxylic acid hydrazide]",>45%@ 3 μM,38%,18%,,
"NNC(=O)c1cnc(OCC(F)(F)F)c(-c2ccc(Cl)c(F)c2)c1 [Example 9, 5-(4-chloro-3-fluorophenyl)-6-(2,2,2-trifluoroethoxy)-3-pyridinecarboxylic acid hydrazide]",>45%@ 3 μM,11%,-2%,,
"O=C(NN1CCC(O)CC1)c1cnc(OCC2CC2)c(-c2ccc(Cl)cc2)c1 [Example 10, 5-(4-chlorophenyl)-6-(cyclopropylmethoxy)-N-(4-hydroxypiperidin-1-yl)-3-pyridinecarboxamide]",,34%,2%,1.03 µM,
"O=C(NN1CCC(O)CC1)c1cnc(OC2CCC2)c(-c2ccc(Cl)cc2)c1 [Example 11, 5-(4-chlorophenyl)-6-cyclobutoxy-N-(4-hydroxypiperidin-1-yl)-3-pyridinecarboxamide]",,14%,-8%,0.18 µM,
"O=C(NN1CCC(O)CC1)c1cnc(OCC(F)(F)F)c(C2CCCCC2)c1 [Example 12, 5-cyclohexyl-N-(4-hydroxypiperidin-1-yl)-6-(2,2,2-trifluoroethoxy)-3-pyridinecarboxamide]",,8%,6%,1.48 µM,
"CS(=O)(=O)N1CCN(NC(=O)c2cnc(OCC(F)(F)F)c(-c3ccc(Cl)cc3)c2)CC1 [Example 13, 5-(4-chlorophenyl)-N-(4-(methylsulfonyl)piperazin-1-yl)-6-(2,2,2-trifluoroethoxy)-3-pyridinecarboxamide]",,23%,1%,0.33 µM,
"O=C(NN1CCOCC1)c1cnc(OCC(F)(F)F)c(C2CCCC2)c1 [Example 14, 5-cyclopentyl-N-morpholino-6-(2,2,2-trifluoroethoxy)-3-pyridinecarboxamide]",,19%,9%,1.08 µM,
"O=C(NN1CCCC1=O)c1cnc(OCC(F)(F)F)c(C2CCCC2)c1 [Example 15, 5-cyclopentyl-N-(2-oxopyrrolidin-1-yl)-6-(2,2,2-trifluoroethoxy)-3-pyridinecarboxamide]",>45%@ 3 μM,13%,12%,,
"CN(NC(=O)c1cnc(OCC(F)(F)F)c(C2CCCC2)c1)c1ccc(Cl)nn1 [Example 16, N′-(6-chloropyridazin-3-yl)-5-cyclopentyl-N′-methyl-6-(2,2,2-trifluoroethoxy)-3-pyridinecarboxylic acid hydrazide]",,21%,-5%,1.17 µM,
"COC[C@@H]1CCCN1NC(=O)c1cnc(OCC(F)(F)F)c(C2CCCC2)c1 [Example 17, (S)-5-cyclopentyl-N-(2-(methoxymethyl)pyrrolidin-1-yl)-6-(2,2,2-trifluoroethoxy)-3-pyridinecarboxamide]",,33%,3%,0.12 µM,
"CN(NC(=O)c1cnc(OCC(F)(F)F)c(C2CCCC2)c1)c1ccccc1 [Example 18, 5-cyclopentyl-N′-methyl-N′-phenyl-6-(2,2,2-trifluoroethoxy)-3-pyridinecarboxylic acid hydrazide]",>45%@ 3 μM,41%,18%,,
"O=C(NN1CCOCC1)c1cnc(OCC(F)(F)F)c(C2CCCCC2)c1 [Example 19, 5-cyclohexyl-N-morpholino-6-(2,2,2-trifluoroethoxy)-3-pyridinecarboxamide]",,29%,-23%,5.39 µM,
"CN(NC(=O)c1cnc(OCC(F)(F)F)c(C2CCCCC2)c1)c1ccccc1 [Example 20, 5-cyclohexyl-N′-methyl-N′-phenyl-6-(2,2,2-trifluoroethoxy)-3-pyridinecarboxylic acid hydrazide]",>45%@ 3 μM,39%,9%,,
